# Source: patent publication US20250144067A1, “PERSONALIZED STARVATION THERAPY FOR CANCER” (Faeth Therapeutics, Inc., priority 2021, published 2025)
# Read-outs that look alike come from different tables or passages of the source.
# Columns and labels:
# [1] = tested on: NCI-H292 lung cancer cells; assay: FDA drug screening, complete media vs cholesterol-free media with simvastatin (TABLE 2); type: cell-based, human
# [2] = tested on: NCI-H292 lung cancer cells; assay: FDA drug screening, complete media vs cholesterol-free media without statin (TABLE 1); type: cell-based, human
# [3] = NCI-H292 cells, FDA library drug in cholesterol-free media with simvastatin 0.04 μM
# [4] = NCI-H292 cells, FDA library drug in complete media
# [5] = complete media vs cholesterol-free media + simvastatin (0.04 μM), >0 enhanced anti-cancer activity, about 0 neutral, <0 antagonist
# [6] = NCI-H292 cells, FDA drug library screen, cholesterol-free media with simvastatin 0.04 μM
# [7] = NCI-H292 cells, FDA drug library screen, complete media
# [8] = Complete minus Cholesterol-free, greater than 0 enhanced anti-cancer activity, about 0 neutral, below 0 antagonist
# [9] = NCI-H292 cells, FDA drug library screen, cholesterol-free media without statin
# [10] = NCI-H292 cells, cholesterol-free media with simvastatin 0.04 μM, FDA drug library screen (TABLE 2)
# [11] = NCI-H292 cells, complete media, FDA drug library screen (TABLE 2)
# [12] = complete media minus cholesterol-free media + simvastatin (0.04 μM), >0 enhanced anti-cancer activity, about 0 neutral, <0 antagonist
# [13] = Complete minus Cholesterol-free, >0 enhanced anti-cancer activity, about 0 neutral, <0 antagonist
# [14] = NCI-H292 cells, cholesterol-free media without statin
# [15] = NCI-H292 cells, cholesterol-free media without statin, FDA drug library screen
# [16] = NCI-H292 cells, complete media, FDA drug library screen
# [17] = NCI-H292 cells, drug in cholesterol-free media with simvastatin 0.04 μM
Compound,"Difference [1, 5]","Difference [2, 8]","Cholesterol-free [2, 9]","Complete [2, 7]","Cholesterol-free media + simvastatin (0.04 μM) [1, 10]","Complete Media [1, 11]","Difference [1, 12]","Difference [2, 13]","Cholesterol-free [2, 14]","Complete ([2]; NCI-H292 cells, complete media)",further results
CCN(CC)CC(=O)Nc1c(C)cccc1C [Lidocaine],−0.34,–,–,–,–,–,–,–,–,–,"Cholesterol-free media + simvastatin (0.04 μM) [1, 3]: 1.433; Complete Media [1, 4]: 1.088; Difference ([2]; Complete minus Cholesterol-free, greater than 0 enhanced anti-cancer activity, about 0 neutral, below 0 antagonists): −0.78; Cholesterol-free ([2]; NCI-H292 cells in cholesterol-free media without statin): 1.775; Complete ([2]; NCI-H292 cells in complete media): 0.9935"
Leuprolide (Acetate),–,–,–,–,–,–,–,–,–,–,Cholesterol-free media + simvastatin (0.04 μM) [1]: 1.032; Complete Media [1]: 1.087; Difference [1]: 0.06; Cholesterol-free [2]: 1; Complete [2]: 0.6877; Difference [2]: −0.31
COc1cc2nc(N(C)CCCNC(=O)C3CCCO3)nc(N)c2cc1OC (centres unmarked) [Alfuzosin],−0.16,−0.14,0.9745,0.8372,–,–,–,–,–,–,"Cholesterol-free media + simvastatin (0.04 μM) [1, 6]: 1.185; Complete Media [1, 7]: 1.024"
CC(C)NCC(O)COc1ccc(CCOCC2CC2)cc1 (centres unmarked) [Betaxolol],–,−0.10,1.183,1.079,0.941,0.9172,−0.02,–,–,–,–
Cc1cc2ncc(C(=O)NCC(C)(C)NCC(=O)N3CCC[C@H]3C#N)cn2n1 [Anagliptin],−0.12,–,–,–,–,–,–,−0.23,1.234,1.003,"Cholesterol-free media + simvastatin (0.04 μM) [1, 6]: 1.09; Complete Media [1, 7]: 0.9692"
Cn1c(=O)cc(N2CCC[C@@H](N)C2)n(Cc2cc(F)ccc2C#N)c1=O [Trelagliptin],–,–,–,–,–,–,–,−0.22,0.9224,0.705,"Cholesterol-free media + simvastatin (0.04 μM) ([1]; NCI-H292 cells, cholesterol-free media with simvastatin 0.04 μM, cell growth value in FDA drug screen): 1.142; Complete Media ([1]; NCI-H292 cells, complete media, cell growth value in FDA drug screen): 1.234; Difference ([1]; complete media minus cholesterol-free media + simvastatin, >0 enhanced anti-cancer activity, about 0 neutral, <0 antagonist): 0.09"
N[C@@H](CSCCCO)C(=O)O [Fudosteine],−0.15,–,–,–,–,–,–,–,–,–,"Cholesterol-free media + simvastatin (0.04 μM) [1, 6]: 1.309; Complete Media [1, 7]: 1.163; Cholesterol-free [2, 15]: 1.084; Complete [2, 16]: 1.177; Difference ([2]; complete vs cholesterol-free media, >0 enhanced anti-cancer activity, about 0 neutral, <0 antagonist): 0.09"
"CC1CCC(C(C)C)C(O)C1 (single isomer, unassigned; (-)) [(−)-Menthol]",−0.34,–,–,–,–,–,–,–,1.434,1.115,"Cholesterol-free media + simvastatin (0.04 μM) [1, 3]: 1.223; Complete Media [1, 4]: 0.8866; Difference ([2]; complete vs cholesterol-free media, greater than 0 enhanced anti-cancer activity, about 0 neutral, below 0 antagonists): −0.32"
COc1cnc(NS(=O)(=O)c2ccc(N)cc2)nc1 [Sulfameter],–,−0.13,0.9159,0.7824,0.9816,0.9471,−0.03,–,–,–,–
NCCCC[C@H](N[C@@H](CCc1ccccc1)C(=O)O)C(=O)N1CCC[C@H]1C(=O)O [Lisinopril (dihydrate)],–,−0.08,1.734,1.657,0.94,0.9409,0.00,–,–,–,–
CN1C(=O)C[C@@H](C(=O)N[C@@H](Cc2c[nH]cn2)C(=O)N2CCC[C@H]2C(N)=O)NC1=O [Taltirelin],–,–,–,–,–,–,–,–,1.305,0.871,"Cholesterol-free media + simvastatin (0.04 μM) [1, 17]: 1.39; Difference ([1]; complete media vs cholesterol-free media + simvastatin (0.04 μM), […]): −0.24; Difference ([2]; complete vs cholesterol-free media, […]): −0.43"
O=C(O)c1ccccc1Nc1cccc(C(F)(F)F)c1 [Flufenamic acid],−0.22,–,–,–,–,–,–,−0.24,1.258,1.021,"Cholesterol-free media + simvastatin (0.04 μM) [1, 17]: 1.298; Complete Media ([1]; NCI-H292 cells, drug in complete media): 1.077"
COS(=O)(=O)[O-].C[n+]1c2ccccc2nc2ccccc21 [Phenazine (methylsulfate)],–,–,–,–,0.07249,0.06209,−0.01,−0.01,–,–,"Cholesterol-free [2, 15]: 0.03605; Complete [2, 16]: 0.02161"
